Laboratory results from publication PMC4048165, “Reaction Kinetics for the Biocatalytic Conversion of Phenazine-1-Carboxylic Acid to 2-Hydroxyphenazine” (PLoS ONE, 2014).

Molecular target: T1, PhzO (Pseudomonas chlororaphis, UniProt E3UVD3)
T1 construct: full-length phzO (1476-bp PCR fragment, about 491 residues) in pET28a, 6-His tag, E. coli BL21, Ni-NTA purified
T1 sequence (E3UVD3 1-491): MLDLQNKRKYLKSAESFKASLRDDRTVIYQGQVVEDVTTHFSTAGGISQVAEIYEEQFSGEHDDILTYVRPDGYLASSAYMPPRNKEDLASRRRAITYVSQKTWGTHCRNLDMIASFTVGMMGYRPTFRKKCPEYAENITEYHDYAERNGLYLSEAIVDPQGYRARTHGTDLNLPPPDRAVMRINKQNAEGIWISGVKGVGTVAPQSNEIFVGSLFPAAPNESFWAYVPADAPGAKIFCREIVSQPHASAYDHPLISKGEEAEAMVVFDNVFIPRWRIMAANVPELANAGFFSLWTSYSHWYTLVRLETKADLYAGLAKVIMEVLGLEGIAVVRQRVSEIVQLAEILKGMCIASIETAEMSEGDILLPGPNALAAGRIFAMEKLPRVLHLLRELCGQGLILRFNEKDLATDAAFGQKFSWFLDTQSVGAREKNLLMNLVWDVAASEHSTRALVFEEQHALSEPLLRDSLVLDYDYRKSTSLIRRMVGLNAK
Assay: HPLC detection of 2-OH-PCA and 2-OH-PHZ
Type: biochemical
Conditions: NADP(H), 1 mM Fe3+, PCA 200 mg/L, 0.1 M Tris-HCl; results call the enzyme purified, methods describe crude E. coli extract

`O=C(O)c1cccc2nc3ccccc3nc12` [PCA, phenazine-1-carboxylic acid] was tested, and the “HPLC detection of 2-OH-PCA and 2-OH-PHZ” value was “PhzO was sufficient to hydroxylate PCA to produce 2-OH-PHZ in the presence of NADP(H)”.
